Test results reported in patent publication US10875874B2, “Ginkgolide B derivative and preparation method and use thereof” (Chengdu Baiyu Ginkgolide Pharmaceuticals Co., Ltd., priority 2015, dated 2020).
Marks after values point to notes of the source that are not given here.

How the values were obtained:
Assay type in all cases: in vivo, rat
[1] = Weekly food intake of SHR rats
Procedure: (§1) 2.1 Grouping and administration of animals: 112 SHR rats (the female and male SHR rats are half and half, and the female rats are not pregnant) with the body weight of 200-250 g are taken, the rats are enabled to adapt to a laboratory for a period of 5 d, blood pressure is measured once at a day to enable the rats to adapt to the environment and detect stimulation. Then, weighing and numbering are carried out, and the SHR rats are equally divided into 14 groups randomly (each group comprises 8 rats), i.e., an SHR rat model control group, a positive control group (captopril, 27 mg/kg), a BZ large-dose group (120 mg/kg/d), a BZ small-dose group (60 mg/kg/d), a BA large-dose group (120 mg/kg/d), a BA small-dose group (60 mg/kg/d), a BL large-dose group (120 mg/kg/d), a BL small-dose group (60 mg/kg/d), a BM large-dose group (120 mg/kg/d), a BM small-dose group (60 mg/kg/d), a BD large-dose group (120 mg/kg/d), a BD small-dose group (60 mg/kg/d), a GB large-dose group (120 mg/kg/d) and a GB small-dose group (60 mg/kg/d). In addition, 8 healthy Wistar rats are taken as a normal control group. Intragastric administration is performed on the rats of each drug group separately according to the above-mentioned doses by 1 mL/100 g body weight, intragastric administration is performed on the rats of the normal control group and the rats of the SHR rat model control group with an equal volume of distilled water, and administration is performed continuously for 8 weeks.
(§2) 2.2 General state: during observation, conditions such as mind, water drinking, food intake, bowel movement, hair color, body weight and range of motion of rats are observed. Irritable degrees of the rats are divided into III levels: a level I means that the rats are free of obvious response when necks of the rats are seized; a level II means that the rats scream and startle when the necks of the rats are seized; and a level III means that the rats bite or rats of same cages frequently fight when the necks of the rats are seized.
(§3) 3.1 Influence on general state of spontaneously hypertensive rats: the rats of the normal control group are normal in food intake, drinking and motion conditions, sensitive in response, healthy and glossy in hair color, good in mental state and free of any unusual response; the rats of the SHR model group gradually present that back hair is fluffy, clustered and dim, the appetite is reduced, the body weight is reduced, the mind is dispirited and irritable, and the rats are prone to the behaviors of intense resisting, attacking and so on during administration and blood pressure detection, and irritable degrees are mostly changed to a level II and a level III from a level I; and after single administration of ginkgolide B and derivatives thereof, behavioral general state observations of rats of each group are free of obvious difference from those of the model control group.

[2] = Weekly body weight of SHR rats
Procedure: as §1, §2, §3

[3] = tested on: spontaneously hypertensive rats (SHR); test: Caudal artery systolic pressure of spontaneously hypertensive rats, single administration; details: x ± s, n = 8
Procedure: as §1
(§4) 2.3 Blood pressure measuring: caudal artery systolic pressure of rats is measured with a Bp-6 noninvasive blood pressure measuring system. Under the condition that the rats are calm, the systolic pressure is continuously measured for 3 times, and the average value of the measured systolic pressure is taken as a pressure measuring result. Observation indexes: (1) single-administration pressure lowering effect: blood pressure of the rats is measured before administration and blood pressure conditions are measured 30 min, 60 min, 90 min and 120 min after first administration; and (2) continuous-administration pressure lowering condition: blood pressure is separately measured 30 min after administration at 1 d, 7 d, 13 d, 19 d, 25 d, 35 d, 49 d and 56 d, the blood pressure is repeatedly measured for 3 times at a day, and the average value of obtained values is taken as a final blood pressure value.

[4] = tested on: spontaneously hypertensive rats (SHR); test: Caudal artery systolic pressure of spontaneously hypertensive rats, 8 weeks of continuous medication; details: x ± s, n = 8
Procedure: as §1, §4

[5] = 60 mg/kg/d intragastric, week 0
[6] = 60 mg/kg/d intragastric, week 1
[7] = 60 mg/kg/d intragastric, week 2
[8] = 60 mg/kg/d intragastric, week 3
[9] = 60 mg/kg/d intragastric, week 4
[10] = 60 mg/kg/d intragastric, week 5
[11] = 60 mg/kg/d intragastric, week 6
[12] = 60 mg/kg/d intragastric, week 7
[13] = 60 mg/kg/d intragastric, week 8
[14] = 120 mg/kg/d intragastric, week 0
[15] = 120 mg/kg/d intragastric, week 1
[16] = 120 mg/kg/d intragastric, week 2
[17] = 120 mg/kg/d intragastric, week 3
[18] = 120 mg/kg/d intragastric, week 4
[19] = 120 mg/kg/d intragastric, week 5
[20] = 120 mg/kg/d intragastric, week 6
[21] = 120 mg/kg/d intragastric, week 7
[22] = 120 mg/kg/d intragastric, week 8

Which results are given for `CC1C(=O)OC2C(O)C34C5CC(C(C)(C)C)C36C(OC(=O)C6O)OC4(C(=O)O5)C12O` (stereo not shown) [GB, ginkgolide B]?
Average dairy food intake [1, 5]: 18.6 g/day; Average dairy food intake [1, 6]: 20.1^▴ g/d; Average dairy food intake [1, 7]: 18.9^▴ g/d; Average dairy food intake [1, 8]: 17.7 g/day; Average dairy food intake [1, 9]: 18.6^▴ g/d; Average dairy food intake [1, 10]: 21.7^▴▴ g/d; Average dairy food intake [1, 11]: 23.5^▴▴ g/d; Average dairy food intake [1, 12]: 24.2^▴▴ g/d; Average dairy food intake [1, 13]: 25.4^▴▴ g/d; Average dairy food intake [1, 14]: 18.3 g/day; Average dairy food intake [1, 15]: 20.6^▴▴ g/d; Average dairy food intake [1, 16]: 19.5^▴ g/d; Average dairy food intake [1, 17]: 20.6^▴▴ g/d; Average dairy food intake [1, 18]: 21.4^▴▴ g/d; Average dairy food intake [1, 19]: 22.8^▴▴ g/d; Average dairy food intake [1, 20]: 24.6^▴▴ g/d; Average dairy food intake [1, 21]: 26.8^▴▴ g/d; Average dairy food intake [1, 22]: 28.2^▴▴ g/d; Body weight [2, 5]: 230.8 g; Body weight [2, 6]: 235.6 g; Body weight [2, 7]: 243.1^▴ g; Body weight [2, 8]: 250.2 g; Body weight [2, 9]: 258.9^▴ g; Body weight [2, 10]: 262.4 g; Body weight [2, 11]: 268.7^▴ g; Body weight [2, 12]: 280.6^▴▴ g; Body weight [2, 13]: 290.1^▴▴ g; Body weight [2, 14]: 231.0 g; Body weight [2, 15]: 250.3^▴▴ g; Body weight [2, 16]: 258.7^▴▴ g; Body weight [2, 17]: 263.4^▴▴ g; Body weight [2, 18]: 270.6^▴▴ g; Body weight [2, 19]: 281.5^▴▴ g; Body weight [2, 20]: 290.6^▴▴ g; Body weight [2, 21]: 306.7^▴▴ g; Body weight [2, 22]: 321.2^▴▴ g; Systolic pressure ([3]; 60 mg/kg intragastric single administration, 30 min): 160.42 ± 9.56 mmHg; Systolic pressure ([3]; 60 mg/kg intragastric single administration, 60 min): 153.15 ± 12.51 mmHg; Systolic pressure ([3]; 60 mg/kg intragastric single administration, 90 min): 155.16 ± 11.26 mmHg; Systolic pressure ([3]; 60 mg/kg intragastric single administration, 120 min): 159.17 ± 11.63 mmHg; Systolic pressure ([3]; 60 mg/kg intragastric single administration, before administration): 168.41 ± 12.30 mmHg; Systolic pressure ([3]; 120 mg/kg intragastric single administration, 30 min): 151.46 ± 16.27 mmHg; Systolic pressure ([3]; 120 mg/kg intragastric single administration, 60 min): 157.54 ± 17.95 mmHg; Systolic pressure ([3]; 120 mg/kg intragastric single administration, 90 min): 160.26 ± 16.54 mmHg; Systolic pressure ([3]; 120 mg/kg intragastric single administration, 120 min): 152.21 ± 18.27 mmHg; Systolic pressure ([3]; 120 mg/kg intragastric single administration, before administration): 167.49 ± 13.09 mmHg; Systolic pressure ([4]; 60 mg/kg/d intragastric continuous, 1 d, 30 min after administration): 155.67 ± 12.36 mmHg; Systolic pressure ([4]; 60 mg/kg/d intragastric continuous, 7 d, 30 min after administration): 153.46 ± 10.74 mmHg; Systolic pressure ([4]; 60 mg/kg/d intragastric continuous, 13 d, 30 min after administration): 156.25 ± 10.84 mmHg; Systolic pressure ([4]; 60 mg/kg/d intragastric continuous, 19 d, 30 min after administration): 150.68 ± 9.78 mmHg; Systolic pressure ([4]; 60 mg/kg/d intragastric continuous, 25 d, 30 min after administration): 155.65 ± 10.57 mmHg; Systolic pressure ([4]; 60 mg/kg/d intragastric continuous, 35 d, 30 min after administration): 154.25 ± 10.74 mmHg; Systolic pressure ([4]; 60 mg/kg/d intragastric continuous, 49 d, 30 min after administration): 150.56 ± 10.42 mmHg; Systolic pressure ([4]; 60 mg/kg/d intragastric continuous, 56 d, 30 min after administration): 153.85 ± 9.24 mmHg; Systolic pressure ([4]; 60 mg/kg/d intragastric continuous, before administration): 168.41 ± 12.30 mmHg; Systolic pressure ([4]; 120 mg/kg/d intragastric continuous, 1 d, 30 min after administration): 150.63 ± 10.25 mmHg; Systolic pressure ([4]; 120 mg/kg/d intragastric continuous, 7 d, 30 min after administration): 148.54 ± 9.27 mmHg; Systolic pressure ([4]; 120 mg/kg/d intragastric continuous, 13 d, 30 min after administration): 141.74 ± 8.26 mmHg; Systolic pressure ([4]; 120 mg/kg/d intragastric continuous, 19 d, 30 min after administration): 140.95 ± 12.04 mmHg; Systolic pressure ([4]; 120 mg/kg/d intragastric continuous, 25 d, 30 min after administration): 147.46 ± 9.85 mmHg; Systolic pressure ([4]; 120 mg/kg/d intragastric continuous, 35 d, 30 min after administration): 142.33 ± 10.38 mmHg; Systolic pressure ([4]; 120 mg/kg/d intragastric continuous, 49 d, 30 min after administration): 138.79 ± 11.58 mmHg; Systolic pressure ([4]; 120 mg/kg/d intragastric continuous, 56 d, 30 min after administration): 135.28 ± 7.48 mmHg; Systolic pressure ([4]; 120 mg/kg/d intragastric continuous, before administration): 167.49 ± 13.09 mmHg
